# Patent publication US20080015146A1, “Dpp-IV Inhibitors” (SANTHERA PHARMACEUTICALS (DEUTSCHLAND) AG, priority 2004, published 2008)
# pIC50: −log10 of the molar value.
# Target: T1, DPP-IV (Homo sapiens, UniProt P27487)
# T1 construct: Soluble human DPP-IV lacking the transmembrane anchor (Gly31-Pro766); Pre-Pro-alpha-mating factor secretion leader (N, cleaved yes); made in house
# Assay: Continuous fluorimetric assay of inhibition of DPP-IV peptidase activity (cleavage of Gly-Pro-AMC)
# Format: biochemical
# Conditions: substrate Gly-Pro-AMC 16 μM, pH 7.4, 25° C., 1% DMSO; assays carried out with human and porcine DPP-IV (comparable activities)
# Method: Inhibition of DPP-IV peptidase activity was monitored with a continuous fluorimetric assay. This assay is based on the cleavage of the substrate Gly-Pro-AMC (Bachem) by DPP-IV, releasing free AMC. The assay is carried out in 96-well microtiterplates. In a total volume of 100 μl compounds are preincubated with […] DPP-IV employing a buffer containing 10 mM Hepes, 150 mM NaCl, 0.005% Tween 20 (pH 7.4). […] The final concentration of DMSO is 1%. The inhibitory potential of the compounds were determined.
# Soluble human DPP-IV lacking the transmembrane anchor (Gly31-Pro766) was expressed in a recombinant YEAST-strain as Pre-Pro-alpha-mating fusion. The secreted product (rhuDPP-IV-Gly31-Pro766) was purified from fermentation broth (>90% purity).
# T1 sequence (P27487 31-766): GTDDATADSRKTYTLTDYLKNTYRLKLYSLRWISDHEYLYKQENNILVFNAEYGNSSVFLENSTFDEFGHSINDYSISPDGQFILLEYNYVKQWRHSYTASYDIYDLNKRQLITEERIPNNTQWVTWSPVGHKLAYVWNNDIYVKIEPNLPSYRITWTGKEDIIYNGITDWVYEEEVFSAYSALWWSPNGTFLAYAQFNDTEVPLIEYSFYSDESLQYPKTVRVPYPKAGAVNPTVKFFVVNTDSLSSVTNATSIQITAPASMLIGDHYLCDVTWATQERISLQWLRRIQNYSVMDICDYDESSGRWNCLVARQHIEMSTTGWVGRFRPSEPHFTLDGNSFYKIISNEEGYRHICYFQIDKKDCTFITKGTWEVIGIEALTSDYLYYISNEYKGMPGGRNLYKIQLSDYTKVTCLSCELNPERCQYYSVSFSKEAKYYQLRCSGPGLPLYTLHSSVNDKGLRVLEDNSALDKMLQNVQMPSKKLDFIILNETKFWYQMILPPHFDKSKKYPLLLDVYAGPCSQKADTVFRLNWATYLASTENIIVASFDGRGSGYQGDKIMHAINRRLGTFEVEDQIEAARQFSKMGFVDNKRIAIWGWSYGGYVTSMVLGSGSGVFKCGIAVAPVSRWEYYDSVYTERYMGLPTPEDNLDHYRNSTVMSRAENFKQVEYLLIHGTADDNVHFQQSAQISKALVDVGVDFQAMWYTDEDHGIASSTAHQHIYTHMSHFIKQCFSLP
row,Compound,pIC50
1,"N[C@@H](CC(=O)N1CC(n2cccn2)C1)Cc1ccccc1F [Example 52, (3R)-3-Amino-4-(2-fluoro-phenyl)-1-(3-pyrazol-1-yl-azetidin-1-yl)-butan-1-one]",6.00 to 7.00
2,"N[C@@H](CC(=O)N1CC(n2ccc(C(F)(F)F)n2)C1)Cc1cc(F)c(F)cc1F [Example 53, (3R)-3-Amino-1-[3-(3-trifluoromethyl-pyrazol-1-yl)-azetidin-1-yl]-4-(2,4,5-trifluorophenyl)-butan-1-one]",> 7.00
3,"N[C@@H](CC(=O)N1CC(n2nccc2C(F)(F)F)C1)Cc1cc(F)c(F)cc1F [Example 54, (3R)-3-amino-1-[3-(5-trifluoromethyl-pyrazol-1-yl)azetidin-1-yl]-4-(2,4,5-trifluoro-phenyl)-butan-1-one]",> 7.00
4,"N[C@@H](CC(=O)N1CC(n2ccc(C3CC3)n2)C1)Cc1cc(F)c(F)cc1F [Example 55, (R)-3-Amino-1-[3-(3-cyclopropyl-pyrazol-1-yl)-azetidin-1-yl]-4-(2,4,5-trifluoro-phenyl)butan-1-one]",> 7.00
5,"N[C@@H](CC(=O)N1CC(n2nccc2C2CC2)C1)Cc1cc(F)c(F)cc1F [Example 56, (R)-3-amino-1-[3-(5-cyclopropyl-pyrazol-1-yl)-azetidin-1-yl]-4-(2,4,5-trifluoro-phenyl)-butan-1-one]",> 7.00
